Blank lines part the entries; values can stand above or below the compound they belong to.
Experiments:
CDK4/cyclin D3 = molecular target: T1, CDK4/cyclin D3 (Homo sapiens, UniProt P11802); test: Human CDK4/cyclin D3 inhibitory activity (QS S Assist CDK4/Cyclin D3_FP Kit, IMAP fluorescence polarization); type: biochemical; conditions: Human CDK4/cyclin D3 inhibitory activity; read-out: CDK4 Activity symbol
T1 construct: purchased Carna Biosciences, Inc. QS S Assist CDK4/Cyclin D3_FP Kit
Procedure, shortened: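 IMAP fluorescence polarization kit: CDK4/cyclin D3 at 12.5-25 ng/well with kit ATP/substrate/metal mix in 20 mM HEPES pH 7.4, 0.01% Tween20, 2 mM DTT, 45 min at room temperature. FP read at 485/535 nm after 30 min binding; IC50 from dose-response fit of percent inhibition versus enzyme and no-enzyme controls.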

CDK2/cyclin A2 = molecular target: T2, CDK2/cyclin A2 (Homo sapiens, UniProt P24941); test: Human CDK2/cyclin A2 inhibitory activity (QS S Assist CDK2/Cyclin A2_FP Kit, IMAP fluorescence polarization); type: biochemical; conditions: Human CDK2/cyclin A2 inhibitory activity; read-out: CDK2 Activity symbol
T2 construct: purchased Carna Biosciences, Inc. QS S Assist CDK2/Cyclin A2_FP Kit
Procedure, shortened: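 Kinase activity read as fluorescence polarization (485/535 nm) after phosphorylated fluorescent substrate binds IMAP reagent (30 min, RT, dark). Enzyme (2.5 ng/well) reacted 60 min at RT with ATP/substrate/metal in HEPES pH 7.4 buffer with Tween 20 and DTT; no-enzyme wells define 0% activity; IC50 by curve fit.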

T1 sequence (P11802 whole entry): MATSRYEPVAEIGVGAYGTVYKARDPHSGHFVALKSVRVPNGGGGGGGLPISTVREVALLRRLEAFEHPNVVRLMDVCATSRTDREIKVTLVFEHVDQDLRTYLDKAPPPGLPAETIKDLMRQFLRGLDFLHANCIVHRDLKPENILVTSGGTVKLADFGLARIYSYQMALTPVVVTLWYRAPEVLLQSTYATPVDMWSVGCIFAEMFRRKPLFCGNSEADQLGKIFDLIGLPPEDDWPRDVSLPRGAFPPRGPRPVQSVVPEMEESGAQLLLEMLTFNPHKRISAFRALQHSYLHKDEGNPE
T1 sequence (P30281 whole entry partner): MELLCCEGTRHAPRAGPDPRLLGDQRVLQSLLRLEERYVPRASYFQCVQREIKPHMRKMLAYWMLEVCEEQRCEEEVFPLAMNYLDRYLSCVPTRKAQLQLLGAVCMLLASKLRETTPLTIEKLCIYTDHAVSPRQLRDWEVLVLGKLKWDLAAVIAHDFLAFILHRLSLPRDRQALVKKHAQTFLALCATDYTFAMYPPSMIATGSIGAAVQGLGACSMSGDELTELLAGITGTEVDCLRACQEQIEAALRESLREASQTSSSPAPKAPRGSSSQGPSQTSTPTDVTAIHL

SMILES: CC(O)c1cc2cnc(Nc3ccc(N4CCNCC4)cn3)nc2c(NC2CCCOC2)n1 (centres unmarked) [Compound 93]
- IC50 (CDK4/cyclin D3): < 10 nM
- IC50 (CDK2/cyclin A2): ≥ 100 nM

SMILES: CC(C)Nc1nc(C(F)F)cc2cnc(Nc3ccc(CN4CCOCC4)cn3)nc12 [Compound 94]
- IC50 (CDK4/cyclin D3): < 10 nM
- IC50 (CDK2/cyclin A2): ≥ 100 nM

SMILES: CC(C)Nc1nc(C(F)F)cc2cnc(Nc3ccc(NC(=O)C(N)=O)cn3)nc12 [Compound 97]
- IC50 (CDK4/cyclin D3): 10 to 100 nM
- IC50 (CDK2/cyclin A2): ≥ 100 nM

SMILES: CC(C)Nc1nc(C(F)F)cc2cnc(Nc3ccc(-c4ccccc4)cn3)nc12 [Compound 99]
- IC50 (CDK4/cyclin D3): ≥ 100 nM
- IC50 (CDK2/cyclin A2): ≥ 100 nM

SMILES: CC(C)Nc1nc(C(F)F)cc2cnc(Nc3ccc(-c4ccncc4)cn3)nc12 [Compound 100]
- IC50 (CDK4/cyclin D3): 10 to 100 nM
- IC50 (CDK2/cyclin A2): ≥ 100 nM

SMILES: CC(C)Nc1nc(C(F)F)c(Cl)c2cnc(Nc3ccc(N4CCNCC4)cn3)nc12 [Compound 101]
- IC50 (CDK4/cyclin D3): < 10 nM
- IC50 (CDK2/cyclin A2): ≥ 100 nM

SMILES: CC(C)Nc1nc(C(F)F)cc2cnc(Nc3ccc(OCCN4CCCC4=O)cn3)nc12 [Compound 103]
- IC50 (CDK4/cyclin D3): < 10 nM
- IC50 (CDK2/cyclin A2): ≥ 100 nM

SMILES: Cc1cccc(Nc2ncc3cc(C(F)F)nc(NC(C)C)c3n2)n1 [Compound 104]
- IC50 (CDK4/cyclin D3): 10 to 100 nM
- IC50 (CDK2/cyclin A2): ≥ 100 nM

SMILES: CC(O)c1cc2cnc(Nc3ccc(N4CCNCC4)cn3)nc2c(NC(C)c2cc[nH]n2)n1 (centres unmarked) [Compound 105]
- IC50 (CDK4/cyclin D3): < 10 nM
- IC50 (CDK2/cyclin A2): ≥ 100 nM

SMILES: CC(O)c1cc2cnc(Nc3ccc(N4CCNCC4)cn3)nc2c(NC(C)c2cn[nH]c2)n1 (centres unmarked) [Compound 106]
- IC50 (CDK4/cyclin D3): < 10 nM
- IC50 (CDK2/cyclin A2): ≥ 100 nM

SMILES: CC(C)Nc1nc(C(F)F)cc2cnc(Nc3ccc(C4CCC(O)CC4)cn3)nc12 (centres unmarked) [Compound 107]
- IC50 (CDK4/cyclin D3): 10 to 100 nM
- IC50 (CDK2/cyclin A2): ≥ 100 nM

SMILES: CC(C)Nc1nc(C(F)F)cc2cnc(Nc3ccc(-c4ccc(O)cc4)cn3)nc12 [Compound 110]
- IC50 (CDK4/cyclin D3): ≥ 100 nM
- IC50 (CDK2/cyclin A2): ≥ 100 nM

SMILES: CC(C)Nc1nc(C(F)F)cc2cnc(Nc3ccc(CN4CCS(=O)(=O)CC4)cn3)nc12 [Compound 113]
- IC50 (CDK4/cyclin D3): < 10 nM
- IC50 (CDK2/cyclin A2): ≥ 100 nM

SMILES: CC(C)Nc1nc(C(F)F)cc2cnc(Nc3ccc(CN4CCN(S(=O)(=O)N(C)C)CC4)cn3)nc12 [Compound 114]
- IC50 (CDK4/cyclin D3): 10 to 100 nM
- IC50 (CDK2/cyclin A2): ≥ 100 nM

SMILES: CC(C)Nc1nc(C(F)F)cc2cnc(Nc3ccc(CN4CCN(S(C)(=O)=O)CC4)cn3)nc12 [Compound 115]
- IC50 (CDK4/cyclin D3): < 10 nM
- IC50 (CDK2/cyclin A2): ≥ 100 nM

SMILES: CC(C)Nc1nc(C(F)F)cc2cnc(Nc3ccc(CN4CCN(CC(F)(F)F)CC4)cn3)nc12 [Compound 116]
- IC50 (CDK4/cyclin D3): 10 to 100 nM
- IC50 (CDK2/cyclin A2): ≥ 100 nM

SMILES: CC(=O)N1CCN(Cc2ccc(Nc3ncc4cc(C(F)F)nc(NC(C)C)c4n3)nc2)CC1 [Compound 117]
- IC50 (CDK4/cyclin D3): < 10 nM
- IC50 (CDK2/cyclin A2): ≥ 100 nM

SMILES: CC(C)Nc1nc(C(F)F)cc2cnc(Nc3ccc(CN4CCC(C(C)(C)O)CC4)cn3)nc12 [Compound 118]
- IC50 (CDK4/cyclin D3): < 10 nM
- IC50 (CDK2/cyclin A2): 10 to 100 nM

SMILES: CC(C)Nc1nc(C(F)F)cc2cnc(Nc3ccc(O[C@H]4CC[C@@H](O)CC4)cn3)nc12 [Compound 119]
- IC50 (CDK4/cyclin D3): 10 to 100 nM
- IC50 (CDK2/cyclin A2): ≥ 100 nM

SMILES: CC(C)Nc1nc(C(F)F)cc2cnc(Nc3ccc(O[C@H]4CC[C@H](O)CC4)cn3)nc12 [Compound 120]
- IC50 (CDK4/cyclin D3): 10 to 100 nM
- IC50 (CDK2/cyclin A2): ≥ 100 nM

SMILES: CC(C)Nc1nc(C(F)F)cc2cnc(Nc3ccc(OCC(C)(C)CO)cn3)nc12 [Compound 122]
- IC50 (CDK4/cyclin D3): 10 to 100 nM
- IC50 (CDK2/cyclin A2): ≥ 100 nM

SMILES: CC(C)Nc1nc(C(F)F)cc2cnc(Nc3ccc(OCCCN4CCCC4=O)cn3)nc12 [Compound 123]
- IC50 (CDK4/cyclin D3): 10 to 100 nM
- IC50 (CDK2/cyclin A2): ≥ 100 nM

SMILES: CC(C)Nc1nc(C(F)F)cc2cnc(Nc3ccc(CN4CCC(C(N)=O)CC4)cn3)nc12 [Compound 125]
- IC50 (CDK4/cyclin D3): < 10 nM
- IC50 (CDK2/cyclin A2): 10 to 100 nM

SMILES: CC(C)Nc1nc(C(F)F)cc2cnc(Nc3ccc(CN4CC(O)C4)cn3)nc12 [Compound 126]
- IC50 (CDK4/cyclin D3): ≥ 100 nM
- IC50 (CDK2/cyclin A2): ≥ 100 nM

SMILES: CC(C)Nc1nc(C(F)F)cc2cnc(Nc3ccc(CN4CCCC(CO)C4)cn3)nc12 (centres unmarked) [Compound 127]
- IC50 (CDK4/cyclin D3): < 10 nM
- IC50 (CDK2/cyclin A2): 10 to 100 nM

SMILES: CC(C)Nc1nc(C(F)F)cc2cnc(Nc3ccc(CN4CCCC(O)C4)cn3)nc12 (centres unmarked) [Compound 128]
- IC50 (CDK4/cyclin D3): < 10 nM
- IC50 (CDK2/cyclin A2): 10 to 100 nM

SMILES: CC(C)Nc1nc(C(F)F)cc2cnc(Nc3ccc(CN4CCC(C(=O)O)CC4)cn3)nc12 [Compound 129]
- IC50 (CDK4/cyclin D3): < 10 nM
- IC50 (CDK2/cyclin A2): 10 to 100 nM

SMILES: CC(C)Nc1nc(C(F)F)cc2cnc(Nc3ccc(CN4CCC(N(C)C)CC4)cn3)nc12 [Compound 130]
- IC50 (CDK4/cyclin D3): < 10 nM
- IC50 (CDK2/cyclin A2): 10 to 100 nM

SMILES: CC(C)Nc1nc(C(F)F)cc2cnc(Nc3ccc(CN4CCNC(=O)C4)cn3)nc12 [Compound 131]
- IC50 (CDK4/cyclin D3): < 10 nM
- IC50 (CDK2/cyclin A2): 10 to 100 nM

SMILES: CC(C)Nc1nc(C(F)F)cc2cnc(Nc3ccc(N4CC[C@H](O)CC4=O)cn3)nc12 [Compound 137]
- IC50 (CDK4/cyclin D3): < 10 nM
- IC50 (CDK2/cyclin A2): 10 to 100 nM

SMILES: CC(C)Nc1nc(C(F)F)cc2cnc(Nc3ccc(CNS(C)(=O)=O)cn3)nc12 [Compound 140]
- IC50 (CDK4/cyclin D3): < 10 nM
- IC50 (CDK2/cyclin A2): ≥ 100 nM

SMILES: CC(C)Nc1nc(C(F)F)cc2cnc(Nc3ccc(CN(C)S(C)(=O)=O)cn3)nc12 [Compound 141]
- IC50 (CDK4/cyclin D3): < 10 nM
- IC50 (CDK2/cyclin A2): ≥ 100 nM

Results, then the compound that gave them:

- IC50 (CDK4/cyclin D3): ≥ 100 nM
- IC50 (CDK2/cyclin A2): 10 to 100 nM
SMILES: CC(C)Nc1nc(C(F)F)cc2cnc(Nc3ccc(NC(=O)CO)cn3)nc12 [Compound 95]

- IC50 (CDK4/cyclin D3): 10 to 100 nM
- IC50 (CDK2/cyclin A2): 10 to 100 nM
SMILES: CC(C)Nc1nc(C(F)F)cc2cnc(Nc3ccc(C(N)=O)cn3)nc12 [Compound 96]

- IC50 (CDK4/cyclin D3): ≥ 100 nM
- IC50 (CDK2/cyclin A2): ≥ 100 nM
SMILES: CC(C)Nc1nc(C(F)F)cc2cnc(Nc3ccc(NC(=O)CCO)cn3)nc12 [Compound 98]

- IC50 (CDK4/cyclin D3): 10 to 100 nM
- IC50 (CDK2/cyclin A2): ≥ 100 nM
SMILES: COC(=O)CCc1ccc(Nc2ncc3cc(C(F)F)nc(NC(C)C)c3n2)nc1 [Compound 102]

- IC50 (CDK4/cyclin D3): < 10 nM
- IC50 (CDK2/cyclin A2): 10 to 100 nM
SMILES: CC(C)Nc1nc(C(F)F)cc2cnc(Nc3ccc(CCCCO)cn3)nc12 [Compound 108]

- IC50 (CDK4/cyclin D3): 10 to 100 nM
- IC50 (CDK2/cyclin A2): ≥ 100 nM
SMILES: CC(C)Nc1nc(C(F)F)cc2cnc(Nc3ccc(C(=O)NCCO)cn3)nc12 [Compound 109]

- IC50 (CDK4/cyclin D3): 10 to 100 nM
- IC50 (CDK2/cyclin A2): ≥ 100 nM
SMILES: CC(C)Nc1nc(C(F)F)cc2cnc(Nc3ccc(CCC(=O)O)cn3)nc12 [Compound 111]

- IC50 (CDK4/cyclin D3): 10 to 100 nM
- IC50 (CDK2/cyclin A2): 10 to 100 nM
SMILES: CC(C)Nc1nc(C(F)F)cc2cnc(Nc3ccc(S(=O)(=O)CCCO)cn3)nc12 [Compound 112]

- IC50 (CDK4/cyclin D3): < 10 nM
- IC50 (CDK2/cyclin A2): 10 to 100 nM
SMILES: CC(C)Nc1nc(C(F)F)cc2cnc(Nc3ccc(CCC(N)=O)cn3)nc12 [Compound 121]

- IC50 (CDK4/cyclin D3): 10 to 100 nM
- IC50 (CDK2/cyclin A2): ≥ 100 nM
SMILES: CC(=O)NCc1ccc(Nc2ncc3cc(C(F)F)nc(NC(C)C)c3n2)nc1 [Compound 124]

- IC50 (CDK4/cyclin D3): < 10 nM
- IC50 (CDK2/cyclin A2): 10 to 100 nM
SMILES: CC(C)Nc1nc(C(F)F)cc2cnc(Nc3ccc(CC(N)=O)cn3)nc12 [Compound 132]

- IC50 (CDK4/cyclin D3): 10 to 100 nM
- IC50 (CDK2/cyclin A2): ≥ 100 nM
SMILES: CC(C)Nc1nc(C(F)F)cc2cnc(Nc3ccc(CC(=O)O)cn3)nc12 [Compound 133]

- IC50 (CDK4/cyclin D3): < 10 nM
- IC50 (CDK2/cyclin A2): 10 to 100 nM
SMILES: CC(C)Nc1nc(C(F)F)cc2cnc(Nc3ccc(CCO)cn3)nc12 [Compound 134]

- IC50 (CDK4/cyclin D3): < 10 nM
- IC50 (CDK2/cyclin A2): ≥ 100 nM
SMILES: CC(C)Nc1nc(C(F)F)cc2cnc(Nc3ccc(CCCC(N)=O)cn3)nc12 [Compound 135]

- IC50 (CDK4/cyclin D3): 10 to 100 nM
- IC50 (CDK2/cyclin A2): ≥ 100 nM
SMILES: CC(C)Nc1nc(C(F)F)cc2cnc(Nc3ccc(CCCC(=O)O)cn3)nc12 [Compound 136]

- IC50 (CDK4/cyclin D3): < 10 nM
- IC50 (CDK2/cyclin A2): 10 to 100 nM
SMILES: CC(C)Nc1nc(C(F)F)cc2cnc(Nc3ccc(CNC(N)=O)cn3)nc12 [Compound 138]

- IC50 (CDK4/cyclin D3): < 10 nM
- IC50 (CDK2/cyclin A2): 10 to 100 nM
SMILES: CC(=O)N(C)Cc1ccc(Nc2ncc3cc(C(F)F)nc(NC(C)C)c3n2)nc1 [Compound 139]

— patent publication US10124004B2, “Pyrido[3,4-d]pyrimidine derivative and pharmaceutically acceptable salt thereof” (Teijin Pharma Limited, priority 2015, dated 2018)
